smiles,measurement,setting,value
CC1=CC(=O)C(C(C)C)=CC1=O,solubility (mole fraction),"in DMSO, 298.2 K",0.0278
same,solubility (mole fraction),"in DMSO, 303.2 K",0.0309
same,solubility (mole fraction),"in DMSO, 308.2 K",0.0358
same,solubility (mole fraction),"in DMSO, 313.2 K",0.0402
same,solubility (mole fraction),"in DMSO, 318.2 K",0.045
same,solubility (mole fraction),"in PEG-400, 298.2 K",0.0352
same,solubility (mole fraction),"in PEG-400, 303.2 K",0.042
same,solubility (mole fraction),"in PEG-400, 308.2 K",0.0508
same,solubility (mole fraction),"in PEG-400, 313.2 K",0.0617
same,solubility (mole fraction),"in PEG-400, 318.2 K",0.0744
same,solubility (mole fraction),"in ethanol, 298.2 K",0.0179
same,solubility (mole fraction),"in ethanol, 303.2 K",0.0206
same,solubility (mole fraction),"in ethanol, 308.2 K",0.0238
same,solubility (mole fraction),"in ethanol, 313.2 K",0.0278
same,solubility (mole fraction),"in ethanol, 318.2 K",0.0326
same,solubility (mole fraction),"in ethyl acetate, 298.2 K",0.0312
same,solubility (mole fraction),"in ethyl acetate, 303.2 K",0.0347
same,solubility (mole fraction),"in ethyl acetate, 308.2 K",0.0387
same,solubility (mole fraction),"in ethyl acetate, 313.2 K",0.0431
same,solubility (mole fraction),"in ethyl acetate, 318.2 K",0.0485
same,solubility (mole fraction),"in isopropanol, 298.2 K",0.0451
same,solubility (mole fraction),"in isopropanol, 303.2 K",0.0514
same,solubility (mole fraction),"in isopropanol, 308.2 K",0.0579
same,solubility (mole fraction),"in isopropanol, 313.2 K",0.0663
same,solubility (mole fraction),"in isopropanol, 318.2 K",0.0758
same,solubility (mole fraction),"in methanol, 298.2 K",0.01
same,solubility (mole fraction),"in methanol, 303.2 K",0.0116
same,solubility (mole fraction),"in methanol, 308.2 K",0.0137
same,solubility (mole fraction),"in methanol, 313.2 K",0.0157
same,solubility (mole fraction),"in methanol, 318.2 K",0.0182
same,solubility (mole fraction),"in n-butanol, 298.2 K",0.0594
same,solubility (mole fraction),"in n-butanol, 303.2 K",0.0658
same,solubility (mole fraction),"in n-butanol, 308.2 K",0.0744
same,solubility (mole fraction),"in n-butanol, 313.2 K",0.082
same,solubility (mole fraction),"in n-butanol, 318.2 K",0.0933
same,solubility (mole fraction),"in propylene glycol, 298.2 K",0.00553
same,solubility (mole fraction),"in propylene glycol, 303.2 K",0.0069
same,solubility (mole fraction),"in propylene glycol, 308.2 K",0.00891
same,solubility (mole fraction),"in propylene glycol, 313.2 K",0.0116
same,solubility (mole fraction),"in propylene glycol, 318.2 K",0.0146
same,solubility (mole fraction),"in sec-butanol, 298.2 K",0.0614
same,solubility (mole fraction),"in sec-butanol, 303.2 K",0.07
same,solubility (mole fraction),"in sec-butanol, 308.2 K",0.0774
same,solubility (mole fraction),"in sec-butanol, 313.2 K",0.0865
same,solubility (mole fraction),"in sec-butanol, 318.2 K",0.0973
same,solubility (mole fraction),"in transcutol, 298.2 K",0.0664
same,solubility (mole fraction),"in transcutol, 303.2 K",0.0755
same,solubility (mole fraction),"in transcutol, 308.2 K",0.0838
same,solubility (mole fraction),"in transcutol, 313.2 K",0.0927
same,solubility (mole fraction),"in transcutol, 318.2 K",0.103
same,solubility (mole fraction),"in water, 298.2 K",8.27e-05
same,solubility (mole fraction),"in water, 303.2 K",9.39e-05
same,solubility (mole fraction),"in water, 308.2 K",0.000108
same,solubility (mole fraction),"in water, 313.2 K",0.000131
same,solubility (mole fraction),"in water, 318.2 K",0.000152

# Source: BigSolDB 2.1
